Article PMC8170749, “4-(1-Benzyl-1H-benzo[d]imidazol-2-yl)-4-oxo-2-butenoic Acid Derivatives: Design, Synthesis and Anti-HIV-1 Activity” (Iranian Journal of Pharmaceutical Research : IJPR, 2021)

Experiments:
[1] = test system: HIV-1; set-up: method as in PMID 27659398, PMID 21728968, PMID 22214459, PMID 21767569; details: cited from earlier work
[2] = test system: HIV-1 integrase (IN); set-up: method as in PMID 27659398, PMID 21728968, PMID 22214459, PMID 21767569; details: cited from earlier work
[3] = set-up: method as in PMID 27659398, PMID 21728968, PMID 22214459, PMID 21767569; details: cited from earlier work
[4] = test system: single cycle replicable HIV NL4-3 virions; test: single-cycle HIV-1 replication assay in HeLa cells (p24 ELISA); type: cell-based; details: for EC50: Human immunodeficiency virus 1, NL43, HeLa, 72 h, read-out: Anti-HIV-1 activity (EC50)
[5] = in vitro; details: human

| SMILES | inhibitory activity in cellular assays [1] | inhibitory activity in enzymatic assays [2] | cell toxicity [3] | SI (selectivity index, CC50/EC50 ratio) [4] | EC50 [4] | CC50 at 72 h [5] | CC50 [5] |
| --- | --- | --- | --- | --- | --- | --- | --- |
| COc1cccc2c1c(C(=O)/C=C(\O)C(=O)O)cn2Cc1ccc(F)cc1 [CHI-1043] | submicromolar | submicromolar | low cell toxicity |  |  |  |  |
| O=C(O)C(O)=CC(=O)c1nc2ccccc2n1Cc1ccccc1 [Compound 13a, 4-(1-benzyl-1H-benzo[d]imidazol-2-yl)-2-hydroxy-4-oxo-2-butenoic acid] |  |  |  | 4.5 | 110 µM | 500 µM |  |
| Cc1ccccc1Cn1c(C(=O)C=C(O)C(=O)O)nc2ccccc21 [Compound 13b, 4-(1-(2-methylbenzyl)-1H-benzo[d]imidazol-2-yl)-2-hydroxy-4-oxo-2-butenoic acid] |  |  |  | 9.8 | 60 µM | 590 µM |  |
| Cc1cccc(Cn2c(C(=O)C=C(O)C(=O)O)nc3ccccc32)c1 [Compound 13c, 4-(1-(3-methylbenzyl)-1H-benzo[d]imidazol-2-yl)-2-hydroxy-4-oxo-2-butenoic acid] |  |  |  | 5.7 | 75 µM | 430 µM |  |
| Cc1ccc(Cn2c(C(=O)C=C(O)C(=O)O)nc3ccccc32)cc1 [Compound 13d, 4-(1-(4-methylbenzyl)-1H-benzo[d]imidazol-2-yl)-2-hydroxy-4-oxo-2-butenoic acid] |  |  |  | 11.6 | 50 µM | 580 µM |  |
| O=C(O)C(O)=CC(=O)c1nc2ccccc2n1Cc1ccccc1Cl [Compound 13e, 4-(1-(2-chlorobenzyl)-1H-benzo[d]imidazol-2-yl)-2-hydroxy-4-oxo-2-butenoic acid] |  |  |  | 2.4 | 155 µM | 380 µM |  |
| O=C(O)C(O)=CC(=O)c1nc2ccccc2n1Cc1cccc(Cl)c1 [Compound 13f, 4-(1-(3-chlorobenzyl)-1H-benzo[d]imidazol-2-yl)-2-hydroxy-4-oxo-2-butenoic acid] |  |  |  | 7.4 | 55 µM | 410 µM |  |
| O=C(O)C(O)=CC(=O)c1nc2ccccc2n1Cc1ccccc1F [Compound 13g, 4-(1-(2-fluorobenzyl)-1H-benzo[d]imidazol-2-yl)-2-hydroxy-4-oxo-2-butenoic acid] |  |  |  | 13.7 | 40 µM | 550 µM |  |
| O=C(O)C(O)=CC(=O)c1nc2ccccc2n1Cc1cccc(F)c1 [Compound 13h, 4-(1-(3-fluorobenzyl)-1H-benzo[d]imidazol-2-yl)-2-hydroxy-4-oxo-2-butenoic acid] |  |  |  | 8.7 | 55 µM | 480 µM |  |
| COc1cccc(Cn2c(C(=O)C=C(O)C(=O)O)nc3ccccc32)c1 [Compound 13i, 4-(1-(3-methoxybenzyl)-1H-benzo[d]imidazol-2-yl)-2-hydroxy-4-oxo-2-butenoic acid] |  |  |  | 5.4 | 90 µM | 490 µM |  |
| O=C(O)/C(O)=C/C(=O)c1cccn1Cc1ccc(F)cc1 [L-731,988] |  |  | low cell toxicity |  |  |  |  |
| Cc1nnc(C(=O)NC(C)(C)c2nc(C(=O)NCc3ccc(F)cc3)c(O)c(=O)n2C)o1 [Raltegravir, reference compound] |  |  |  |  | 0.9 µM |  | > 500 µM |
